Patent US8476317B2, “N-alkylcarbonyl-amino acid ester compounds and their use for cough and pharyngitis” (priority 2011, dated 2013)

Key:
[1] = test system: philtrum skin; assay: Cooling on facial (philtrum) skin, ointment; assay type: in vivo, human
From the text: A reliable place for topical application is the skin above the upper lip (above the vermilion border of the lips), on the philtrum, lateral to the philtrum until the nasolabial folds, and on the lower nostrils (subnasale). This part of the face is known to be densely innervated with cold receptors, second only to the surfaces of the eyeball and anogenitalia. At this locus, tingling, cool and cold sensations in the skin may be experienced and rated for time of onset and intensity.
The intervals for recording sensations are 5 to 10 minutes, until two successive zeroes are obtained. The results (shown in FIG. 1) are averaged values of 4 to 6 separate trials in the same individual. The data are plotted using SigmaPlot® (Systat Software, Point Richmond Calif.) and a smoothing function with a negative exponential was used for analysis and statistical fit of the results. Confirmatory trials of cooling action of the long-acting NACE compounds were obtained in 2 to 4 individuals but not quantified for some because of the large number of chemicals that were evaluated.
The onset of drug action is taken as the time to reach 2 units of coolness intensity, and offset of drug action is the time when coolness intensity drops below 2, after previously surpassing 2 units. The duration of cooling action is defined as the offset time minus the onset time. […] The quality of the sensation is noted, for example, as pure refreshing coolness, or if the sensation is accompanied by irritation (stinging or burning). The quality of the sensation is not rated for intensity.
For bioassay on the skin, approximately 30 mg was stirred and dissolved in 3 g of warm liquid Aquaphor® ointment to a yield a 40 mM (˜1% wt/vol) ointment. The exact amount was adjusted so that the molar equivalent was about 35 to 40 mM. After cooling, 40 to 70 mg of the solid ointment was placed on the tip of a plastic stick and applied to the skin above the upper lip, on the philtrum, and lateral to the philtrum, up to the nasolabial folds, of test subjects and the onset and duration of cooling sensations noted.
The intervals for recording sensations were 5 to 10 minutes, until two successive zeroes were obtained. The results (shown in FIG. 1) are averaged values of 4 to 6 separate trials in the same individual. The data are plotted using SigmaPlot® (Systat Software, Point Richmond, Calif., USA) and a smoothing function with a negative exponential was used for analysis and statistical fit of the results.
The onset of drug action was taken as the time to reach 2 units of coolness intensity, and offset of drug action was the time when coolness intensity drops below 2, after previously surpassing 2 units. The duration of cooling action was defined as the offset time minus the onset time. […] The quality of the sensation was also noted: such as pure refreshing coolness, or if the sensation was accompanied by irritation (stinging or burning). The quality of the sensation was not rated for intensity.
In the results of FIG. 1, the test compounds were singly applied to the skin above the upper lips as a ˜1% wt/vol (10 mg/ml) ointment. Subsequently, for the results shown in Table 3, the test dose on the philtrum was reduced to a 0.5% wt/vol (5 mg/ml) ointment. The reason for choosing a lower dose was to increase the number of trials per individual and to have a reduced chance of substances accumulating in the skin.

[2] = test system: oral cavity / oropharynx; assay: Cooling in oral cavity after application on dorsal surface of tongue; assay type: in vivo, human
Experimental: The subject is instructed to close and hold the substance in the mouth for at least 10 seconds and not to swallow. The description of sensations is then recorded at 5 to 10 minute intervals.
The compounds of Formula 1 are white crystalline solids at room temperatures. These compounds were tested as the pure powder (>95% purity, by HPLC analysis), or mixed 1:1 with powdered or granulated sugar. The test substances were applied at 2 to 5 mg on the mid-point of the dorsal surface of the tongue using a metal spatula or a plastic applicator. After depositing the test substance on the tongue, the subject was instructed to keep the mouth closed and allow the fluids of the mouth to inter-mix with the test substance and to distribute it to the back of the mouth (oropharynx). The presence and duration of subjective sensations from the mouth was then recorded.

[3] = test system: dorsal surface of the tongue; details: average of 6 subjects, filter paper on tongue; Watson et al.; cited from earlier work

With CC1CCC(C(C)C)C(O)C1 (single isomer, unassigned; (-)) [(−)-menthol, reference compound] the “Acts for >1 hour at 40 mM” value ([1]; 40 mM ointment on skin) was “no”, the “"perfect" cooling experience” value ([1]; Table 2 summary) was “no” and the “Cooling on skin of face” value ([1]; Table 2 summary) was “yes”. The “Eye Irritancy” value ([1]; Table 2 summary) was “yes”, the “duration of cooling action of ODT” value ([2]; ODT containing 5 to 10 mg) was “less than 10 minutes” and the Cooling on tongue ([2]; Table 2 summary) was “yes”. For the same molecule, the “Threshold, μg (cooling on tongue)” value [3] was 0.25 µg.
